Results taken from US20070259327A1, “Cryopreservation medium and cryopreservation method for tissues and cells” (BioVerde. Inc., priority 2006, published 2007).

Key:
Format in all cases: cell-based, pigs
[1] = tested on: Islets; test: Viability of post-cryopreservation islets assessed using AO/PI; details: for viability assessed using AO/PI: post-cryopreservation
Description: (§1) Islets were isolated from over two years old pigs (n=3). After overnight culture, a known number of islets were incubated for 2 hours in culture medium supplemented with polyphenol (epigallocatechin-gallate (EGCg) with more than 98% purity) at concentrations of 0 (control), 30, 60, 120 ug/ml. Islets were suspended in the same volume of cryopreservation solution containing 12% hydroxyethyl starch (HES) and 10% dimethyl sulfoxide (DMSO) with 8% […] (FBS), and then cryopreserved using a program freezing system^3. After 4 weeks storage in liquid nitrogen, islets were rapidly thawed in a hot water bath. We assessed the results on recovery rate (islet yield after thawing/islet yield before freezing) following cryopreservation and after 48 hours of postcryopreservation tissue culture, viability and functionality.

[2] = tested on: Islets; test: Functionality of post-cryopreservation islets (stimulation index, insulin secretion high/low glucose); details: ratio of insulin secretion high vs low glucose medium
Description: as §1, with “functionality. […] The stimulation index represents a ratio of insulin secretion between high-concentration glucose culture medium and low-concentration glucose culture medium.” for “functionality.”

[3] = tested on: Islets; test: Islet recovery rate after cryopreservation with polyphenol pre-incubation; details: for islet recovery rate following cryopreservation: 2 hours incubation before freezing, 4 weeks in liquid nitrogen; for islet recovery rate after 48 hours of postcryopreservation tissue culture: 48 hours culture after thawing
Description: as §1

Q: Which results are given for `O=C(O[C@@H]1Cc2c(O)cc(O)cc2O[C@@H]1c1cc(O)c(O)c(O)c1)c1cc(O)c(O)c(O)c1` [polyphenol, epigallocatechin-gallate]?
A: viability assessed using AO/PI ([1]; 30 ug/ml polyphenol): 83.1±1.2; viability assessed using AO/PI ([1]; 60 ug/ml polyphenol): 85.9±2.5; viability assessed using AO/PI ([1]; 120 ug/ml polyphenol): 84.4±1.0; viability following cryopreservation, compared with control ([1]; polyphenol group vs control group, p<0.01): significantly higher than the control group; functionality indicated by stimulation index ([2]; 30 ug/ml polyphenol): 1.4±0.2; functionality indicated by stimulation index ([2]; 60 ug/ml polyphenol): 1.4±0.3; functionality indicated by stimulation index ([2]; 120 ug/ml polyphenol): 0.9±0.3; islet recovery rate following cryopreservation ([3]; 30 ug/ml polyphenol): 66.5±3.3%; islet recovery rate after 48 hours of postcryopreservation tissue culture ([3]; 30 ug/ml polyphenol): 45.3±0.3%; islet recovery rate following cryopreservation ([3]; 60 ug/ml polyphenol): 76.9±5.2%; islet recovery rate after 48 hours of postcryopreservation tissue culture ([3]; 60 ug/ml polyphenol): 68.0±3.0%; islet recovery rate following cryopreservation ([3]; 120 ug/ml polyphenol): 74.5±2.9%; islet recovery rate after 48 hours of postcryopreservation tissue culture ([3]; 120 ug/ml polyphenol): 54.6±3.3%
